# Key:
# Assay type in all cases: cell-based
# [1] = system: p53 (wild-type p53 MCF7 cells); assay: p53 and Δ133p53 mRNA level by RT-qPCR in MCF7 cells; conditions: 5 μM, 48 hours, vs DMSO
# Protocol: (§1) The compounds of the invention have been tested according to the following pharmacological test and the three compounds have been more particularly tested: (40), (1) and (45), all diluted in DMSO. Their effects were thus compared to cells treated with DMSO. A positive control was used, TG003, a benzothiazole compound known to alter splicing through the inhibition of Clk/Sty family activity (Sigma, ref: T5575).
# (§2) Two breast cancer cell lines have been treated with 5 μM of drugs for 48 hours: wild-type p53 MCF7 cells and mutant p53 (R280K) MDA-MB-231-Luc-D3H2N provided by Caliper Life Science (parental Line source: American Type Culture collection). The MDA-MB-231-Luc-D3H2N cells were maintained in two different media during treatment: a DMEM supplemented with 10% foetal calf serum (FCS) and a FCS-free medium for 24 hours followed by 24 hours in a complete medium. The MC7 cells were maintained in a DMEM/FCS 10% medium.
# (§3) Cells were harvested after 48 hours of treatment. Total RNAs (RNeasy Mini-Kit, Qiagen) and proteins (NuPage LDS 1×, Invitrogen) were extracted to analyse mRNA expression by nested RT-PCR or RT-qPCR and protein expression by Western Blot.
# (§4) Analysis of p53 expression was assessed both at mRNA (full-length and truncated, Δ133p53 isoforms) and protein (full-length) levels by RT-qPCR and Western Blot, respectively.
# (§5) The p53 isoform cDNA being too long to be specifically quantified by RT-qPCR, a semi-quantitative RT-PCR method was therefore used, requiring high quality total RNA 28S/18S ratio (>1.5). After reverse-transcription of 500 ng of total RNA using random primers, actin cDNA was amplified by PCR to confirm reverse-transcription efficiency. 0.5 μg of total RNA from each tumour sample was reverse-transcribed (AMV RT, 45 C, random primer) and cDNA quality confirmed by amplification of actin by PCR in 30 cycles. p53 isoform cDNA was amplified by 2 nested PCR of 30 cycles using primers specific of each isoforms as described in Bourdon et al. (Genes Dev., 2005, 19: 2122). Tumours were considered to express each p53 isoform after sequencing of the corresponding PCR fragment.
# [2] = system: p53 (mutant p53 (R280K) MDA-MB-231-Luc-D3H2N cells); assay: p53 mRNA level by RT-qPCR in MDA-MB-231-Luc-D3H2N cells; conditions: 5 μM, 48 hours
# Protocol: as §1, §2, §3, §4, §5
# [3] = system: p53 (mutant p53 (R280K) MDA-MB-231-Luc-D3H2N cells); assay: p53 protein expression by Western Blot (4 antibodies) in MDA-MB-231-Luc-D3H2N cells; conditions: 5 μM, 48 hours
# Protocol: as §1, §2, §3
# p53 protein expression was determined using a panel of 4 different antibodies, namely DO1, SAPLI, CMI and DO12 as described in Bourdon et al. (Genes Dev., 2005, 19: 2122), to avoid problem of detection due to post-translational modification.
# The amount of total proteins in each extract was quantified using BCA kit (promega). 8% SDS-PAGE gels were used. Equal amount (30 μg) of proteins was loaded on each lane. Proteins were then transferred electrophoretically on nitrocellulose membrane. Membranes were blocked in TBS/0.1% Tween 20 containing 3% milk for one hour and then incubated overnight with the primary antibodies diluted in TBS/0.1% Tween 20 containing 3% milk. After several washes in TBS/Tween, membranes were incubated with anti-rabbit Ig antibodies linked to HRP. Membranes were developed with ECL according to the manufacturer's instructions.
# Scanned autoradiographs were quantified using AIDA/2D densitometry software.
# [4] = system: p53-target genes Hdm2, Bcl-2, p21 (mutant p53 MDA-MB-231-Luc-D3H2N cells); assay: p53 transcriptional activity: p53-target gene expression by Western-blot in MDA-MB-231-Luc-D3H2N cells; conditions: 5 μM, 48 hours
# Protocol: as §1, §2, §3
# Analysis of p53 transcriptional activity was assessed through analysis of p53-target gene expression by Western-blot. Four p53-target genes were studied: Hdm2, Bcl-2, p21 and Bax. Hdm2 is known to bind p53 and to negatively regulate p53 activity and stability. p21 is known to mediate p53 dependent cycle arrest. Bcl 2 is known to have an anti-proliferative effect and an apoptotic protective effect, while Bax is known to have a pro-apoptic effect. Bax was not detected in both MCF7 and MDA-MB-231-Luc-D3H2N cells, while p21 was not detected in MDA-MB-231-Luc-D3H2N cells maintained in FCS-free medium. The Western-blot was performed as above described using the antibodies described in Bourdon et al., Genes Dev., 2005, 19: 2122.
# [5] = system: p53 isoforms produced by alternative splicing (wild-type p53 MCF7 cells); assay: p53 isoforms (α, β, γ) expression at mRNA level in MCF7 cells; conditions: 5 μM, 48 hours, RT-qPCR
# Protocol: as §2, §3
# (§6) Expression of p53 isoforms produced by alternative splicing (α, β and γ) was analysed at mRNA levels by RT-qPCR using primers/probe specific of each C-terminal variants. The α-forms are the most abundant forms. In the low abundant forms, β-forms are more expressed than γ-forms.
# as §5, with “A semi-quantitative” for “The p53 isoform cDNA being too long to be specifically quantified by RT-qPCR, a semi-quantitative”, “method” for “method was therefore used,”, “RT, 45C,” for “RT, 45 C,”, “described by” for “described in”
# [6] = system: p53 isoforms produced by alternative splicing (mutant p53 MDA-MB-231-Luc-D3H2N cells); assay: p53 isoforms (α, β, γ) expression at mRNA level in MDA-MB-231-Luc-D3H2N cells; conditions: 5 μM, 48 hours
# Protocol: as §2, §3, §6
# as §5, with “A semi-quantitative” for “The p53 isoform cDNA being too long to be specifically quantified by RT-qPCR, a semi-quantitative”, “method” for “method was therefore used,”, “RT, 45C,” for “RT, 45 C,”, “described by” for “described in”
# [7] = system: MDA-MB231-luc-D3H2LN cells; assay: Invasion of MDA-MB231-D3H2LN cells into collagen; conditions: MDA-MB-231, anti-invasive effect in MDA-MB231 breast cancer cells, concentration giving 0.5 fold the effect of 10 μM Y-27632 ref. compound, read-out: 0.5 fold effect compared to 10 μM Y-27632
# Description: 13.4 Effect of Drug Compounds on Invasion of MDA-MB231-D3H2LN Cells into Collagen
# A key step in the generation of tumor metastasis is the invasion of tumor cells into the extracellular matrix, a major component of which is collagen. Therefore, the invasion of tumor cells into collagen in vitro may be indicative of the generation of metastasis in vivo. E. g., MDA-MB231-luc-D3H2LN […] breast cancer cells display indeed both higher invasion into collagen in vitro and a higher metastatic potential in vivo as compared to MDA-MB231 cells (from which they were derived). Using these MDA-MB231-luc-D3H2LN cells as a model, the aim of the experiment described here is to identify drug compounds that inhibit the invasion of tumor cells into collagen in vitro, therefore potentially inhibiting also the generation of tumor metastasis in vivo.
# Step 1: Preparation of cells at the bottom of a collagen gel: Cells are suspended in a liquid collagen solution (4° C.), distributed into BSA-coated wells, and then collected at the bottom of the wells by centrifugation. The collagen is then solidified by incubation at 37° C. The BSA coating improves the adhesion of the collagen gel.
# Step 2: Pre-treatment with the compounds to be tested: Concentrated drug solutions are then added on top of the collagen, and cells are pre-incubated for 24 h with the drugs at low serum conditions (0.025% FBS).
# Step 3: Stimulation of invasion: Medium with 5% FBS is then added in order to stimulate invasion of the cells into the collagen gel.
# Step 4: Fixation and staining: Following another 24 h incubation, cells are fixed and nuclei are stained.
# Step 5: Analysis: Finally, plates are analyzed using an automated microscope. Fluorescent beads that have been included into the BSA coating serve to detect the bottom of the wells. Pictures of the stained nuclei are taken at the same level (0 μm) as well as 25 μm and 50 μm above.
# Invasion assay: Negative control: No drug (just DMSO at equivalent concentration). Positive control: 10 μM Y-27632. To avoid edge effects, only the 60 central wells B2-G11 are used; lines A and H as well as columns 1 and 12 remain free. Each drug is tested at least in triplicate. The positive and negative controls should be tested in double triplicates at different positions on each plate. Typical plate map (−=negative control, +=positive control, 1-16=16 different drug compounds):
# for each well, calculate the mean invasion distance of the counted cells: (25 μm×number of cells at 25 μm+50 μm×number cells at 50 μm)/sum of cells at 0, 25 and 50 μm
# for all four parameters (number of cells at 0 μm, number of cells at 25 μm, number of cells at 50 μm, mean invasion distance of the counted cells), calculate means, SD and CV of the replicates (n=6 for the controls; n=3 for the samples)
# invalidate any replicate with a CV≥50% (compound to be re-tested, or assay to be repeated if CV≥50% for the untreated negative control or the compound Y-27632-treated positive control). Y27632 is a selective inhibitor of the Rho-associated protein kinase p160ROCK of the following formula
# validate the assay only if the mean invasion distance of the cells treated with 10 μM Y-27632 (positive control) is decreased by ≥40% as compared to the untreated negative control
# Anti-invasive effect in MDA-MB231 breast cancer cells: 0.5 fold effect compared to 10 μM Y-27632 ref. compound.
# [8] = mutant p53 MDA-MB-231-Luc-D3H2N cells in FCS-free medium
# [9] = mutant p53 MDA-MB-231-Luc-D3H2N cells in normal medium
# [10] = mutant p53 MDA-MB-231-Luc-D3H2N cells in FCS-free medium, RT-qPCR
# [11] = mutant p53 MDA-MB-231-Luc-D3H2N cells in normal medium, RT-qPCR
smiles,measurement,setting,value
"CC(C)CCNC(=O)c1cccc(Nc2cccc(/C=C/c3ccncc3)c2)c1 [Compound 1, (E)-N-(3-methylbutyl)-3-[3-(2-pyridin-4-ylvinyl)phenylamino]benzamide]","total p53 expression (total isoforms, TA) at mRNA levels",[1],did not change
same,Δ133p53 mRNA level,[1],increased
same,"p53 expression at mRNA levels (total isoforms, TA): decreased or not",[2]; [8],decreased
same,"p53 expression at mRNA levels (total isoforms, TA)",[2]; [9],significant decrease
same,p53 protein levels (full-length),[3]; [8],did not change
same,p53 protein levels (full-length),[3]; [9],did not change
same,expression of Hdm2 (p53-target gene),[4]; [8],slight decrease
same,p53-target genes expression,[4]; [9],did not affect
same,expression of p53 β-forms (mRNA),[5],tend to increase
same,expression of p53 γ-forms (mRNA),[5],tend to increase
same,p53 α-form expression at mRNA levels,[5],did not change
same,expression of p53 γ-forms (mRNA),[6]; [10],no significant increase
same,p53 α-form expression at mRNA levels,[6]; [10],did not change
same,p53 γ-forms expression by nested RT-PCR,[6]; [8],restoration
same,expression of p53 β-forms (mRNA),[6]; [11],tend to increase
same,expression of p53 γ-forms (mRNA),[6]; [11],tend to increase
same,p53 α-form expression at mRNA levels,[6]; [11],did not change
same,p53 γ-forms expression by nested RT-PCR,[6]; [9],restoration
CCN(CC)CCCNC(=O)c1ccc(Nc2cccc(/C=C/c3ccncc3)c2)c(C)c1 [Compound 6],IC (0.5-fold effect of 10 uM Y-27632),[7],0.7 ± 0.1 µM
"NC(=O)c1cccc(Nc2cccc(/C=C/c3ccncc3)c2)c1 [Compound 9, 3-[3-(2-pyridin-4-ylvinyl)phenylamino]benzamide]",IC (0.5-fold effect of 10 uM Y-27632),[7],1.1 ± 0.4 µM
O=S(=O)(NCCCN1CCOCC1)c1cccc(Nc2cccc(/C=C/c3ccncc3)c2)c1 [Compound 16],IC (0.5-fold effect of 10 uM Y-27632),[7],0.75 ± 0.19 µM
O=S(=O)(NCCCN1CCCCC1)c1cccc(Nc2cccc(/C=C/c3ccncc3)c2)c1 [Compound 17],IC (0.5-fold effect of 10 uM Y-27632),[7],0.83 ± 0.09 µM
"CCN(CC)CCCNS(=O)(=O)c1cccc(Nc2cccc(/C=C/c3ccncc3)c2)c1 [Compound 18, N-(3-diethylaminopropyl)-3-[3-(2-pyridin-4-ylvinyl)phenylamino]benzenesulfonamide]",IC (0.5-fold effect of 10 uM Y-27632),[7],0.55 ± 0.05 µM
O=C(NCCCN1CCCCC1)c1cccc(Nc2cccc(/C=C/c3ccncc3)c2)c1 [Compound 19],IC (0.5-fold effect of 10 uM Y-27632),[7],0.25 ± 0.05 µM
"CN1CCN(CCCNC(=O)c2cccc(Nc3cccc(/C=C/c4ccncc4)c3)c2)CC1 [Compound 21, (E)-[3-(4-methyl-piperazinyl)-propyl]-3-[3-(2-pyridin-4-ylvinyl)-phenylamino]-benzamide]",IC (0.5-fold effect of 10 uM Y-27632),[7],0.17 ± 0.04 µM
O=C(NCCCN1CCCC1)c1cccc(Nc2cccc(/C=C/c3ccncc3)c2)c1 [Compound 22],IC (0.5-fold effect of 10 uM Y-27632),[7],0.3 ± 0.05 µM
O=S(=O)(NCCN1CCCCC1)c1cccc(Nc2cccc(/C=C/c3ccncc3)c2)c1 [Compound 24],IC (0.5-fold effect of 10 uM Y-27632),[7],0.64 ± 0.2 µM
O=S(=O)(NCCN1CCCC1)c1cccc(Nc2cccc(/C=C/c3ccncc3)c2)c1 [Compound 25],IC (0.5-fold effect of 10 uM Y-27632),[7],0.5 ± 0.21 µM
CCN(CC)CCCNC(=O)c1ccccc1Nc1cccc(OC(F)(F)F)c1 [Compound 49],IC (0.5-fold effect of 10 uM Y-27632),[7],0.13 ± 0.3 µM
CCN(CC)CCCNC(=O)c1ccccc1Nc1ccc(OCc2ccccc2)cc1 [Compound 50],IC (0.5-fold effect of 10 uM Y-27632),[7],1 µM
CCN(CC)CCCNC(=O)c1ccccc1Nc1cccc(/C=C/c2ccncc2)c1 [Compound 129],IC (0.5-fold effect of 10 uM Y-27632),[7],0.2 µM
